Source: patent US12662485B2, “Substituted pyrazolo[4,3-D]pyrimidines as gut-targeted phosphodiesterase inhibitors” (priority 2020, dated 2026)

Experiments:
[1] = mouse, in vivo
colon epithelium = assay: Epithelial proliferation in the colon by flow cytometry using Ki67; format: in vivo; details: mice, drug in drinking water 8 days; control 21%
Protocol: Toxicity studies and histology. […] The body weight was measured daily. After 8 days the animals were sacrificed and the epithelial proliferation in the colon was measured by flow cytometry using Ki67. Box plots show median and whiskers are min and max values. The p values were generated using a one-way ANOVA with Dunnett's multiple comparisons test. For FIGS. 5A and 5C, n=5.

PDE5 = target: T1, PDE5 (Homo sapiens, UniProt O76074); assay: Reporter cell assay: LS-174T cells expressing PKG2 and PDE5, low-dose linaclotide, phospho-VASP Western blot; format: cell-based; details: LS-174T reporter cells
T1 construct: host or cells: LS-174T colon cancer reporter cell line
Description: Results shown are representative of at least 3 independent experiments.
Western blot and reporter cell lines. […] Results shown are representative of at least 3 independent experiments.

With `CCCc1nn(C)c2c(=O)[nH]c(-c3cc(S(=O)(=O)N4CCNCC4)ccc3OCC)nc12` [desmethyl-sildenafil, reference compound] the “entry from the gut into plasma, dose curve” value [1] was “increased dramatically in the plasma”.
For `CCCc1nn(C)c2c(=O)[nH]c(-c3cc(S(=O)(=O)N4CCN(C)CC4)ccc3OCC)nc12` [sildenafil, reference compound], the “total Ki67 positive cells in colon epithelium” value (colon epithelium) was 15%.
In the case of acetyl-sildenafil, the “potency of PDE5 inhibitor activity relative to sildenafil (VASP phosphorylation)” value (PDE5) is reported as “equally potent as the parent compound”.
